Measurements published in ChEMBL document CHEMBL1123583 (J Med Chem, 1987).

Experiments:
[1] = Acid dissociation constant was determined for the compound; format: ADME
[2] = target: Histamine H2 receptor (Cavia porcellus) (UniProt P47747)
[3] = target: Histamine H2 receptor (Cavia porcellus) (UniProt P47747); remark: listed apart in the source
[4] = target: Histamine H2 receptor (Cavia porcellus) (UniProt P47747); remark: listed apart in the source
[5] = target: T1, Histamine H2 receptor (Cavia porcellus, UniProt P47747); experiment: Antagonistic activity of guinea pig Histamine H2 receptor expressed as pA2 at pH 7.4; format: functional; conditions: read-out: pA2 (converted)
T1 sequence (P47747 whole entry): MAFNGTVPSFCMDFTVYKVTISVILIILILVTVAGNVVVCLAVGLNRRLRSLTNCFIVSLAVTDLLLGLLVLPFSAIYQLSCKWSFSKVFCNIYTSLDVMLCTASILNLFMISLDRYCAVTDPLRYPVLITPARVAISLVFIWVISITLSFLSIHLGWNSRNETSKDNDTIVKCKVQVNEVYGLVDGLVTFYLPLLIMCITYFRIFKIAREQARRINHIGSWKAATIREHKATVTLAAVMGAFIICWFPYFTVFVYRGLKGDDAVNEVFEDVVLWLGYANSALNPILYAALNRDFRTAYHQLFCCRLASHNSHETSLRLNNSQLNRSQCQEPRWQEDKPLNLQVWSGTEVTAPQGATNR

[6] = target: T1, Histamine H2 receptor; experiment: Antagonistic activity of guinea pig Histamine H2 receptor expressed as pA2 at pH 7.0; format: functional; conditions: read-out: pA2 (converted)
[7] = target: T1, Histamine H2 receptor; experiment: Antagonistic activity of guinea pig Histamine H2 receptor expressed as pA2 at pH 7.8; format: functional; conditions: read-out: pA2 (converted)

Sequence of Histamine H2 receptor (Cavia porcellus) (P47747 whole entry): as above

| pKa ([1]; read-out: pKa1) | pD2 [2] | pD2 [3] | pD2 [4] | pKa ([1]; read-out: pKa2) | Kb [5] | Kb [6] | Kb [7] | SMILES |
| --- | --- | --- | --- | --- | --- | --- | --- | --- |
| 9.57 | 5.88 | 5.89 | 5.81 | 6.1 |  |  |  | NCCc1c[nH]cn1 [HISTAMINE] |
| 8.82 |  |  |  | 5.64 | 17.4 nM | 45.7 nM | 11.7 nM | CC(C)/N=C/Nc1ccc(-c2c[nH]cn2)cc1 [MIFENTIDINE] |

| SMILES | pKa ([1]; read-out: pKa1) | pD2 [2] | pD2 [3] | pD2 [4] | pKa ([1]; read-out: pKa2) | Kb [5] | Kb [6] | Kb [7] |
| --- | --- | --- | --- | --- | --- | --- | --- | --- |
| CN/C(=N/CCSCc1nc[nH]c1C)NC#N [CIMETIDINE] | 6.98 |  |  |  |  |  |  |  |
